The numbers were not newly measured in US20250339362A1, “SKINCARE SUPPLEMENTS” (Natals, Inc., priority 2024, published 2025), which cites them from elsewhere.

Like-named read-outs stand apart in the source and are kept apart here.

The test system of the data set is male and female subjects ages 35-64 years. The settings on record: 120 mg HA capsule orally once per day, Visioscan.

With hyaluronic acid [HA], the “facial skin smoothness: Statistical significance compared to placebo” value (Week 8) is reported as “No” and the “facial skin smoothness: Statistical significance compared to placebo” value (Week 12) was “statistically significant reduction in smoothness”.
